Results taken from patent US20120202799A1, “Condensed Azepine Derivatives As Bromodomain Inhibitors” (priority 2009, published 2012).

molecular target: T1, Bromodomain 2, 3 and 4 (BRD2, BRD3 and BRD4); assay: Fluorescence Anisotropy Binding Assay; design: species or system Human; conditions: result stated for one or more of BRD2, BRD3 and BRD4, target not specified per compound
T1 construct: fused on or other part: six-His tag at the N-terminus
Experimental: All data was normalized to the mean of 16 high and 16 low control wells on each plate. A four parameter curve fit of the following form was then applied:
y=a+((b−a)/(1+(10̂x/10̂c)̂d)
The His-tagged Bromodomain was extracted from E. coli cells using 0.1 mg/ml lysozyme and sonication. […] Further purification was completed by Superdex 200 prep grade size exclusion column. Purified protein was stored at −80 C in 20 mM HEPES pH 7.5 and 100 mM NaCl.

SMILES | pIC50 in one or more of the BRD2, BRD3 and BRD4 assays
Cc1nnc2n1-c1ccccc1C(c1ccccc1)=NC2NC(=O)OCc1ccco1 (centres unmarked) [Example 44, 2-furanylmethyl (1-methyl-6-phenyl-4H-[1,2,4]triazolo[4,3-a][1,4]benzodiazepin-4-yl)carbamate] | ≥ 5.0

system: not given; assay: not given; conditions: not given

melting point [°C] | SMILES
225 | COc1ccc(C2=NC(NC(=O)Nc3ccc(C(=O)c4ccccc4)cc3)c3nnc(C)n3-c3ccccc32)cc1 (centres unmarked)
160 to 170 | Cc1nnc2n1-c1ccc(Br)cc1C(c1ccccc1F)=NC2NC(=O)OCc1ccccc1 (centres unmarked) [Example 17, phenylmethyl [8-bromo-6-(2-fluorophenyl)-1-methyl-4H-[1,2,4]triazolo[4,3-a][1,4]benzodiazepin-4-yl]carbamate]
> 260 | Cc1nnc2n1-c1ccccc1C(c1ccccc1)=NC2NC(=O)Nc1ccccc1 (centres unmarked) [Example 70, N-(1-methyl-6-phenyl-4H-[1,2,4]triazolo[4,3-a][1,4]benzodiazepin-4-yl)-N′-phenyl urea]

SMILES | melting point [°C]
COc1ccc2cc(C(=O)NC3N=C(c4ccccc4)c4ccccc4-n4c(C)nnc43)[nH]c2c1 (centres unmarked) [Example 53, 6-(methyloxy)-N-(1-methyl-6-phenyl-4H-[1,2,4]-triazolo[4,3-a][1,4]benzodiazepin-4-yl)-1H-indole-2-carboxamide] | 160 to 170

system: TNFα levels in LPS stimulated whole blood; assay: LPS Stimulated Whole Blood Measuring TNFα Levels Assay; assay type: cell-based; conditions: LPS final concentration 200 ng/ml, 24 hours at 37 degrees, TNFα by immunoassay, read-out: pIC50 (TNFα levels) (converted)
Experimental: Activation of monocytic cells by agonists of toll-like receptors such as bacterial lipopolysaccharide (LPS) results in production of key inflammatory mediators including TNFα. Such pathways are widely considered to be central to the pathophysiology of a range of auto-immune and inflammatory disorders.
Compounds to be tested are diluted to give a range of appropriate concentrations and 1 ul of the dilution stocks is added to wells of a 96 plate. Following addition of whole blood (130 μl) the plates are incubated at 37 degrees (5% CO2) for 30 min before the addition of 10 ul of 2.8 ug/ml LPS, diluted in complete RPMI 1640 (final concentration=200 ng/ml), to give a total volume of 140 μl per well. After further incubation for 24 hours at 37 degrees, 140 μl of PBS are added to each well. The plates are sealed, shaken for 10 minutes and then centrifuged (2500 rpm×10 min). 100 μl of the supernatant are removed and TNFα levels assayed by immunoassay (typically by MesoScale Discovery technology) either immediately or following storage at −20 degrees. Dose response curves for each compound was generated from the data and an IC50 value was calculated.

SMILES | IC50 [µM]
Cc1nnc2n1-c1ccccc1C(c1ccccc1)=NC2NC(=O)OCc1ccccc1 (single isomer, unassigned; (+)) [Example 27, (+)-phenylmethyl (1-methyl-6-phenyl-4H-[1,2,4]triazolo[4,3-a][1,4]benzodiazepin-4-yl)carbamate] | ≤ 10
CCOC(=O)NC1N=C(c2ccc(Cl)cc2)c2ccccc2-n2c(C)nnc21 (single isomer, unassigned; (+)) [Example 28, (+)-ethyl [6-(4-chlorophenyl)-1-methyl-4H-[1,2,4]triazolo[4,3-a][1,4]benzodiazepin-4-yl]carbamate] | ≤ 10
CCOC(=O)NC1N=C(c2ccccc2)c2ccccc2-n2c(C)nnc21 (single isomer, unassigned; (+)) [Example 32, (+)-ethyl 1-methyl-6-phenyl-4H-[1,2,4]triazolo[4,3-a][1,4]benzodiazepin-4-ylcarbamate] | ≤ 10
COc1ccc2cc(C(=O)NC3N=C(c4ccccc4)c4ccccc4-n4c(C)nnc43)[nH]c2c1 (centres unmarked) [Example 53, 6-(methyloxy)-N-(1-methyl-6-phenyl-4H-[1,2,4]-triazolo[4,3-a][1,4]benzodiazepin-4-yl)-1H-indole-2-carboxamide] | ≤ 10
Cc1nnc2n1-c1ccccc1C(c1ccccc1)=NC2NC(=O)/C=C/c1ccccc1 (centres unmarked) [Example 64, (2E)-N-(1-methyl-6-phenyl-4H-[1,2,4]triazolo[4,3-a][1,4]benzodiazepin-4-yl)-3-phenyl-2-propenamide] | ≤ 10
Cc1nnc2n1-c1ccccc1C(c1ccccc1)=NC2NC(=O)/C=C/c1ccc(F)cc1 (centres unmarked) [Example 65, (2E)-3-(4-fluorophenyl)-N-(1-methyl-6-phenyl-4H-[1,2,4]triazolo[4,3-a][1,4]benzodiazepin-4-yl)-2-propenamide] | ≤ 10
